Test results from patent US6403794B2, “Substituted 2-amino-4-alkylamino-1,3,5-triazines as herbicides” (Bayer Aktiengesellschaft, priority 1996, dated 2002).

What was measured:
Assay type in all cases: in vivo
[1] = test system: Abutilon; experiment: Pre-emergence test; conditions: Abutilon, 504 h, greenhouse, after three weeks, read-out: degree of damage to the plants (% damage), Abutilon; for pest or weed control at 1000 g/ha: 1000 g of ai./ha
Experimental: (§1) Solvent: 5 parts by weight of acetone
(§2) Emulsifier: 1 part by weight of alkylaryl polyglycol ether
(§3) To produce a suitable preparation of active compound, 1 part by weight of active compound is mixed with the stated amount of solvent, the stated amount of emulsifier is added and the concentrate is diluted with water to the desired concentration.
(§4) Seeds of the test plants are sown in normal soil. After about 24 hours, the soil is watered with the preparation of active compound. The amount of water per unit area is advantageously kept constant. The concentration of active compound in the preparation is immaterial, only the application rate of active compound per unit area matters.
(§5) After three weeks, the degree of damage to the plants is scored visually in % damage in comparison to the development of the untreated control.
(§6) 0%=no effect (like untreated control)

[2] = test system: Alopecurus; experiment: Pre-emergence test; conditions: greenhouse, after three weeks
Experimental: as §1, §2, §3, §4, §5, §6

[3] = test system: Cotton; experiment: Pre-emergence test; conditions: greenhouse, 500 g of ai./ha, after three weeks
Experimental: as §1, §2, §3, §4, §5, §6

[4] = test system: Digitaria; experiment: Pre-emergence test; conditions: greenhouse, 500 g of ai./ha, after three weeks
Experimental: as §1, §2, §3, §4, §5, §6

[5] = test system: Galium; experiment: Pre-emergence test; conditions: greenhouse, after three weeks
Experimental: as §1, §2, §3, §4, §5, §6

[6] = test system: Maize; experiment: Pre-emergence test; conditions: greenhouse, 500 g of ai./ha, after three weeks
Experimental: as §1, §2, §3, §4, §5, §6

[7] = test system: Matricaria; experiment: Pre-emergence test; conditions: greenhouse, 500 g of ai./ha, after three weeks
Experimental: as §1, §2, §3, §4, §5, §6

[8] = test system: weeds; experiment: Pre-emergence test
Experimental: as §1, §2, §3, §4, §5, §6

[9] = test system: Abutilon; experiment: Post-emergence test; conditions: greenhouse, after three weeks
Experimental: as §1, §2, §3
(§7) Test plants which have a height of 5-15 cm are sprayed with the preparation of active compound such that the particular amounts of active compounds desired are applied per unit area. The concentration of the spray liquor is chosen so that the particular amounts of active compound desired are applied in 1000 l of water/ha.
(§8) After three weeks, the degree of damage to the plants is scored visually in % damage, in comparison to the untreated control.
as §6

[10] = test system: Datura; experiment: Post-emergence test; conditions: greenhouse, 250 g of ai./ha, after three weeks
Experimental: as §1, §2, §3, §7, §8, §6

[11] = test system: Echinochloa; experiment: Post-emergence test; conditions: greenhouse, 250 g of ai./ha, after three weeks
Experimental: as §1, §2, §3, §7, §8, §6

[12] = test system: Ipomoea; experiment: Post-emergence test; conditions: greenhouse, 250 g of ai./ha, after three weeks
Experimental: as §1, §2, §3, §7, §8, §6

[13] = test system: Veronica; experiment: Post-emergence test; conditions: greenhouse, 250 g of ai./ha, after three weeks
Experimental: as §1, §2, §3, §7, §8, §6

[14] = test system: Wheat; experiment: Post-emergence test; conditions: greenhouse, 250 g of ai./ha, after three weeks
Experimental: as §1, §2, §3, §7, §8, §6

[15] = test system: weeds; experiment: Post-emergence test
Experimental: as §1, §2, §3, §7, §8, §6

[16] = test system: Amaranthus; experiment: Pre-emergence test; conditions: Amaranthus, 504 h, greenhouse, 1000 g of ai./ha, after three weeks, read-out: degree of damage to the plants (% damage), Amaranthus
Experimental: as §1, §2, §3, §4, §5, §6

[17] = test system: Chenopodium; experiment: Pre-emergence test; conditions: greenhouse, 500 g of ai./ha, after three weeks
Experimental: as §1, §2, §3, §4, §5, §6

[18] = test system: Setaria; experiment: Pre-emergence test; conditions: greenhouse, 1000 g of ai./ha, after three weeks
Experimental: as §1, §2, §3, §4, §5, §6

[19] = test system: Solanum; experiment: Pre-emergence test; conditions: greenhouse, 500 g of ai./ha, after three weeks
Experimental: as §1, §2, §3, §4, §5, §6

[20] = test system: Veronica; experiment: Pre-emergence test; conditions: greenhouse, 500 g of ai./ha, after three weeks
Experimental: as §1, §2, §3, §4, §5, §6

[21] = test system: Viola; experiment: Pre-emergence test; conditions: greenhouse, 500 g of ai./ha, after three weeks
Experimental: as §1, §2, §3, §4, §5, §6

[22] = test system: Wheat; experiment: Pre-emergence test; conditions: greenhouse, 500 g of ai./ha, after three weeks
Experimental: as §1, §2, §3, §4, §5, §6

[23] = test system: Amaranthus; experiment: Post-emergence test; conditions: Amaranthus, 504 h, greenhouse, 1000 g of ai./ha, after three weeks, read-out: degree of damage to the plants (% damage), Amaranthus
Experimental: as §1, §2, §3, §7, §8, §6

[24] = test system: Galium; experiment: Post-emergence test; conditions: greenhouse, 1000 g of ai./ha, after three weeks
Experimental: as §1, §2, §3, §7, §8, §6

[25] = test system: Setaria; experiment: Post-emergence test; conditions: Setaria, 504 h, greenhouse, 1000 g of ai./ha, after three weeks, read-out: degree of damage to the plants (% damage), Setaria
Experimental: as §1, §2, §3, §7, §8, §6

[26] = test system: Xanthium; experiment: Post-emergence test; conditions: greenhouse, 1000 g of ai./ha, after three weeks
Experimental: as §1, §2, §3, §7, §8, §6

[27] = test system: Sinapis; experiment: Pre-emergence test; conditions: greenhouse, 1000 g of ai./ha, after three weeks
Experimental: as §1, §2, §3, §4, §5, §6

[28] = test system: Xanthium; experiment: Pre-emergence test; conditions: greenhouse, 1000 g of ai./ha, after three weeks
Experimental: as §1, §2, §3, §4, §5, §6

[29] = test system: Alopecurus; experiment: Post-emergence test; conditions: greenhouse, 1000 g of ai./ha, after three weeks
Experimental: as §1, §2, §3, §7, §8, §6

[30] = test system: Avena fatua; experiment: Post-emergence test; conditions: greenhouse, 1000 g of ai./ha, after three weeks
Experimental: as §1, §2, §3, §7, §8, §6

[31] = test system: Cyperus; experiment: Post-emergence test; conditions: greenhouse, 1000 g of ai./ha, after three weeks
Experimental: as §1, §2, §3, §7, §8, §6

[32] = test system: Sinapis; experiment: Post-emergence test; conditions: greenhouse, 1000 g of ai./ha, after three weeks
Experimental: as §1, §2, §3, §7, §8, §6

`CCC(CCc1ccccc1)Nc1nc(N)nc(C(C)(C)F)n1` (racemic) [Example 1, (R/S)-2-amino-4-(1-fluoro-1-methyl-ethyl)-6-(1-ethyl-3-phenyl-propylamino)-1,3,5-triazine] was tested, and the pest or weed control at 500 g/ha ([1]; 500 g of ai./ha) was 100%, the “degree of damage to the plants (% damage), Alopecurus” value (“degree … (% damage), Alopecurus” for short) ([2]; 500 g of ai./ha) was 100% and the “degree of damage to the plants (% damage), Cotton” value [3] was 0%. The “degree of damage to the plants (% damage), Digitaria” value [4] was 100%, the “degree of damage to the plants (% damage), Galium” value (“degree … (% damage), Galium” for short) ([5]; 500 g of ai./ha) was 100% and the “degree of damage to the plants (% damage), Maize” value [6] was 0%. The “degree of damage to the plants (% damage), Matricaria” value [7] was 100%, the activity against weeds [8] was “strong activity” and the “degree of damage to the plants (% damage), Abutilon” value (“degree … (% damage), Abutilon” below) ([9]; 250 g of ai./ha) was 100%. The “degree of damage to the plants (% damage), Datura” value [10] was 100%, the “degree of damage to the plants (% damage), Echinochloa” value [11] was 80% and the “degree of damage to the plants (% damage), Ipomoea” value [12] was 100%. The “degree of damage to the plants (% damage), Veronica” value [13] was 100%, the “degree of damage to the plants (% damage), Wheat” value [14] was 0% and the activity against weeds [15] was “strong activity”.

With `CCC(CCc1ccccn1)Nc1nc(N)nc(C(C)(C)F)n1` (stereo not drawn) [Example 22] the pest or weed control at 1000 g/ha [1] was 100%, the “degree … (% damage), Alopecurus” value ([2]; 1000 g of ai./ha) was 90% and the pest or weed control at 1000 g/ha [16] was 95%. For the same compound, the “degree of damage to the plants (% damage), Chenopodium” value [17] was 100%, the “degree of damage to the plants (% damage), Cotton” value [3] was 0% and the “degree … (% damage), Galium” value ([5]; 1000 g of ai./ha) was 100%. The “degree of damage to the plants (% damage), Setaria” value [18] was 70%, the “degree of damage to the plants (% damage), Solanum” value [19] was 100% and the “degree of damage to the plants (% damage), Veronica” value [20] was 100%. For the same compound, the “degree of damage to the plants (% damage), Viola” value [21] was 100%, the “degree of damage to the plants (% damage), Wheat” value [22] was 0% and the activity against weeds [8] was “strong activity”. The “degree … (% damage), Abutilon” value ([9]; 1000 g of ai./ha) was 70%, the pest or weed control at 1000 g/ha [23] was 95% and the “degree … (% damage), Galium” value [24] was 80%. For the same compound, the pest or weed control at 1000 g/ha [25] was 80%, the “degree of damage to the plants (% damage), Xanthium” value [26] was 70% and the activity against weeds [15] was “strong activity”.

With `CCC(CCc1ccsc1)Nc1nc(N)nc(C(C)(C)F)n1` (stereo not drawn) [Example 33] the pest or weed control at 1000 g/ha [1] was 90%, the “degree … (% damage), Alopecurus” value ([2]; 1000 g of ai./ha) was 100% and the pest or weed control at 1000 g/ha [16] was 100%. For the same compound, the “degree of damage to the plants (% damage), Setaria” value [18] was 100%, the “degree of damage to the plants (% damage), Sinapis” value [27] was 100% and the “degree of damage to the plants (% damage), Xanthium” value [28] was 90%. For the same compound, the activity against weeds [8] was “strong activity”, the “degree … (% damage), Abutilon” value ([9]; 1000 g of ai./ha) was 100% and the “degree … (% damage), Alopecurus” value [29] was 80%. For the same compound, the pest or weed control at 1000 g/ha [23] was 100%, the “degree of damage to the plants (% damage), Avena fatua” value [30] was 100% and the “degree of damage to the plants (% damage), Cyperus” value [31] was 90%. The pest or weed control at 1000 g/ha [25] was 100%, the “degree of damage to the plants (% damage), Sinapis” value [32] was 100% and the activity against weeds [15] was “strong activity”.
